One assay relates to iNOS. As to the kind of experiment: Western blot of iNOS in HSV-1 d27.1-infected V27 cell lysates. Conditions: 30 μM ATA; d27.1 MOI 1; V27 lysates 24 h.p.i.; with or without 10% FBS. It counts as cell-based, African green monkey. As to the method:
V27 cells in Dulbecco's Modified Eagles Medium (DMEM) (Hyclone, Waltham, Mass.) were infected with the HSV-1 d27.1 vector at an MOI of 1 and treated with 30 μM ATA (Sigma, St. Louis, Mo.), with or without 10% fetal bovine serum (FBS). Control experiments without ATA were also performed. V27 cell lysates were obtained 24 hours post infection (h.p.i.) and Western blots were run on the lysates and iNOS protein was detected by using purified rabbit anti-iNOS/NOS Type II pAb (BD Biosciences, Cat#610332).
(In general: Immunoblotting shows a protein as a band on a membrane.)

The subject of a further assay is NOS3 = eNOS. As to the kind of experiment: Affymetrix Gen Array, NOS3 expression in 293 cells. It counts as cell-based, human. Conditions: probe 205581_s_at. The method, then:
Confluent 293 cells (2.4×10^6 cells in a 75 cm^2 flask) were cultured in DMEM+10% FCS for approximately 20 hrs and were then infected with one plaque forming unit per cell (PFU/cell) of HSV-1 MacIntyre Strain for 90 min. ATA at a concentration 20 μM (final) was added 90 min post-infection. The infected cells were harvested at 24 h after infection. Total RNA of sufficient quality and quantity was isolated from suspension using RNeasy Plus Mini Kit (QIAGEN, Valencia, Calif.) according to the manufacturer's instructions. Whole genome expression profiling was performed on Affymetrix Human U133 Plus 2.0 Array by the Asuragen, Inc. 3 μg total RNA was provided as input material.
Overall, RNA quality assessed on the bioanalyzer had RIN values of >9. Array hybridization and scaling factors were within passing quality control range. After scanning, raw expression CEL files were processed with Affymetrix Expression Console vs.1.1.2 (affymetrix.com). Each CEL file was processed with Robust Multichip Analysis (RMA) and a summarized table was exported as a text file. All downstream genomics and statistical analyses were done with JMP Genomics (version 5) (jmp.com/software/genomics). First, a filtering step was applied to filter-out low expression, specifically, those values below 6 in log^2 mode in at least 2 out of 8 samples. […]

Assay [1] deals with rHSV-1 d27-1 (d27-1) vector. As to the kind of experiment: ATA-HSV protocol: rHSV-1 d27-1 vector yield in V27 cell supernatants. In kind it is cell-based, HSV-1. Conditions: V27 cells, n=10, ATA 50 μM at Step 1, final 20 μM.

Molecules are shown by their SMILES.

As to `O=C(O)C1=CC(=C(c2ccc(O)c(C(=O)O)c2)c2ccc(O)c(C(=O)O)c2)C=CC1=O` [ATA, 5-((3-carboxy-4-hydroxyphenyl)(3-carboxy-4-oxo-2,5-cyclohexadien-1-ylidene)methyl)-2-hydroxybenzoic acid], in the assay with iNOS, the “iNOS expression (Western blot)” value is “inhibits”. Besides, the “NOS3 expression, ATA” value with NOS3 = eNOS (ATA alone) is reported as 1.24. In the assay on NOS3 = eNOS (HSV + ATA, HSV alone 2.45), the “NOS3 expression, HSV + ATA” value turned out to be 1.94. Further, the “increase of d27-1 titer after ATA addition” value in assay [1] (6-well plates, MOI 0.15) worked out at 6.1 times. Further, the “d27-1 titer after ATA addition” value in assay [1] (without ATA 5.4×10^7) is listed as 1.1×10^8 DRP/ml.

For the origin of these results see patent US11299715B2, “Use of iNOS inhibitors to increase viral yield in culture” (priority 2013, dated 2022).
